For one assay, the target named is Cathepsin B (Capra hircus, UniProt H9B8T9). Kind of assay: Cathepsin Ezyme Assay. Conditions: pH 6.
In a further assay the target is T1, Cathepsin H (Capra hircus, UniProt A0A060INS8).
T1 sequence (A0A060INS8 whole entry): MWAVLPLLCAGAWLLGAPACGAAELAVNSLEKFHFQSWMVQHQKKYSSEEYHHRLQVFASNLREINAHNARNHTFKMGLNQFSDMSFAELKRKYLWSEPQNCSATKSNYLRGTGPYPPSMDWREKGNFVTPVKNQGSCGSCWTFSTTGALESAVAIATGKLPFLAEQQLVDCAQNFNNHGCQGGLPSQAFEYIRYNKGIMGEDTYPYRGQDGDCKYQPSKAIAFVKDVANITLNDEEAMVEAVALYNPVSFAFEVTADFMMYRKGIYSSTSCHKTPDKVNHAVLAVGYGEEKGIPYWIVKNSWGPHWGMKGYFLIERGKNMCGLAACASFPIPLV
The experiment in a line: Cathepsin Ezyme Assay. Conditions: pH 6.

This is an account of results in BindingDB's records for doi:10.1016/j.bioorg.2015.01.005 (Kurukshetra University, 2015).

Method for Cathepsin B: (§1) Cathepsin B and H were first activated in the presence of thiol activators at pH 6.0 and pH 7.0, respectively. Then, 15 µL of the enzyme solution was mixed with 940 µL of 0.1 M sodium phosphate buffer containing 1 mM EDTA separately, for 10 min at 37 °C. […] After 30 min, 25 µL of 100 mM substance stock solution was added to start the reaction.
Method for Cathepsin H: as §1

For the compound `O=C1NC(c2ccc(Br)cc2)Nc2ccccc21` (centres undefined), the Ki (usually a measure of affinity in units of concentration, obtained from inhibition or displacement) at Cathepsin B is 32.5 µM; on Cathepsin H it was 52.6 µM.
The corresponding values for `CN(C)c1ccc(C2NC(=O)c3ccccc3N2)cc1` (centres undefined) [2-(4-(Dimethylamino)phenyl)-2,3-dihydroquinazolin-4(1H)-one (1h)] are 10.6 µM and 18.6 µM.
In the case of `O=C1NC(c2ccc(Cl)cc2)Nc2ccccc21` (centres undefined) [2-(4-Chlorophenyl)-2,3-dihydroquinazolin-4(1H)-one (1e)], the Ki stood at 0.041 µM at Cathepsin B and 23.3 µM at Cathepsin H.
The corresponding values for `O=C1NC(c2ccc(F)cc2)Nc2ccccc21` (centres undefined) [2-(4-Fluorophenyl)-2,3-dihydroquinazolin-4(1H)-one (1f)] are 0.0064 µM and 8.18 µM.
On to `COc1ccc(C2NC(=O)c3ccccc3N2)cc1` (centres undefined) [2-(4-Methoxyphenyl)-2,3-dihydroquinazolin-4(1H)-one (1d)], for which the results for the inhibition constant (Ki) on Cathepsin B and at Cathepsin H were 2.81 µM and 56.8 µM, respectively.
As for `Cc1ccc(C2NC(=O)c3ccccc3N2)cc1` (centres undefined) [2-(4-Methylphenyl)-2,3-dihydroquinazolin-4(1H)-one (1c)], the Ki at Cathepsin B came out at 52.6 µM; on Cathepsin H, 2.5 µM.
As for `O=C1NC(c2ccc([N+](=O)[O-])cc2)Nc2ccccc21` (centres undefined) [2-(4-Nitrophenyl)-2,3-dihydroquinazolin-4(1H)-one (1b)], the figures for the Ki at Cathepsin B and on Cathepsin H were 1.57 µM and 10.4 µM, respectively.
